The source of these data is patent US9850283B2, “Macrocyclic inhibitors of the PD-1/PD-L1 and CD80(B7-1)/PD-L1 protein/protein interactions” (BRISTOL-MYERS SQUIBB COMPANY, priority 2013, dated 2017).

Experiment [1] has as its target T1, Human PD-L1/PD-1 (Homo sapiens, UniProt Q9NZQ7).
T1 construct: made in house; host or cells: HEK293T
Nature of the experiment: HTRF PD-1-Ig/PD-L1-His binding assay (human PD-L1). As to conditions: cluster symbol; read-out: HTRF IC50 cluster. In a few lines:
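Soluble Fc-fused PD-1 and His-tagged PD-L1 (truncated before the transmembrane region) were combined in dPBS with 0.1% (w/v) BSA and 0.05% (v/v) Tween-20. Binding was read by HTRF using europium cryptate anti-Ig antibody (1 nM final) and APC anti-His antibody (20 nM final).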
On the technique in general: In TR-FRET formats the signal depends on donor and acceptor labels being close together.

The target in experiment [2] is T2, LK35.2-hPD-L1 cells / PE-labeled PD-1-Ig (Homo sapiens, UniProt Q9NZQ7).
T2 construct: expressed in transfected cells; host or cells: LK35.2 mouse B cell line
T2 sequence (Q9NZQ7 19-290): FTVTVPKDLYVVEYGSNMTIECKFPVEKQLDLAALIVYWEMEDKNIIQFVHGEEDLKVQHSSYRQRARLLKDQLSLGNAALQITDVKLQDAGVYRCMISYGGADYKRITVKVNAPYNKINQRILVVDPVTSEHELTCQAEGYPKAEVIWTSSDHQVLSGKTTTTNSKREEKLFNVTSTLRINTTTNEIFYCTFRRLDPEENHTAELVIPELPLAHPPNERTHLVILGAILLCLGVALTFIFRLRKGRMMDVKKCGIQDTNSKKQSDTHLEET
Nature of the experiment: LK35.2-hPD-L1 cell binding high-content screening assay. To be noted: cluster symbol, read-out: CBA IC50 cluster. The class given is cell-based. The procedure, abridged:
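Using overnight-cultured LK35.2-hPD-L1 mouse B cells, compound was co-incubated with phycoerythrin-tagged human PD-1-Ig (final 1 nM) at 37 °C for one hour. Unbound label was removed by triple dPBS washing prior to high-content image acquisition and analysis.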

Setting [3] is: cell line of CBA not given (LK35.2-hPD-L1 or 293T-hPD-L1).
Where [4] appears, read: cell binding assay, cell line not given.

Where two headings read alike, the source gives them in different places. Starred links: 1 amine or outer side, 2 acyl side, 3 side chain; linkers in the order of their positions; H or OH if unused. Positions of bridges follow the written chain, without caps; N, C: chain ends. Non-standard residues stand in square brackets, D forms with d. Residues, ends and D or L forms follow the SMILES beside them. *: point of attachment. Phe(3-CF3) = N[C@@H](Cc1cccc(C(F)(F)F)c1)C(=O)O; X15 = O=C([C@H](Cc1ccc(Cl)c(F)c1)N[*:1])[*:2]; Phe(3,5-F2) = N[C@@H](Cc1cc(F)cc(F)c1)C(=O)O; Tyr(3-Br) = N[C@@H](Cc1ccc(O)c(Br)c1)C(=O)O; Bta = N[C@@H](Cc1csc2ccccc12)C(=O)O; Hyp = O=C(O)[C@@H]1C[C@@H](O)CN1; NMeF = CN[C@@H](Cc1ccccc1)C(=O)O; NMeNle = CCCC[C@H](NC)C(=O)O; NMeA = CN[C@@H](C)C(=O)O; Orn = NCCC[C@H](N)C(=O)O; 2Furoyl = O=C(c1ccco1)*; Dab = NCC[C@H](N)C(=O)O; Dap = NC[C@H](N)C(=O)O; Sar = CNCC(=O)O

T1 sequence (Q9NZQ7 with tags, fused parts or gaps): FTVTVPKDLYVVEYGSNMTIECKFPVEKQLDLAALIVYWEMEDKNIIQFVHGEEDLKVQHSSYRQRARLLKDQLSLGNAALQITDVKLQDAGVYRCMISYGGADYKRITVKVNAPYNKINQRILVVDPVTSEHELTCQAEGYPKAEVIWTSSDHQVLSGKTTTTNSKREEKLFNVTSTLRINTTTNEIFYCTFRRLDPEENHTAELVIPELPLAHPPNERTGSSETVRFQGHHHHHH

With `CCCC[C@H]1C(=O)N(C)[C@@H](CCCC)C(=O)N[C@@H](CN)C(=O)N[C@H](C(=O)NCC(N)=O)CSCC(=O)N[C@@H](Cc2ccc(O)cc2)C(=O)N(C)[C@@H](C)C(=O)N[C@@H](CC(=O)O)C(=O)N2CCC[C@H]2C(=O)N[C@@H](CN)C(=O)N[C@@H](CC(=O)O)C(=O)N2C[C@H](O)C[C@H]2C(=O)N[C@@H](Cc2c[nH]c3ccccc23)C(=O)N[C@@H](CCN)C(=O)N[C@@H](Cc2csc3ccccc23)C(=O)N1C` [Example 1224] ({CH2CO}-Y[NMeA]DP[Dap]D[Hyp]W[Dab][Bta][NMeNle][NMeNle][Dap]CG-NH2; thioether N-14), the half-maximal inhibitory concentration (IC50) (usually the concentration that gives 50% inhibition) in experiment [1] was in the range of 0.385 to 6.74 nM; in experiment [2] (setting [3]), 0.158 to 4.71 nM.
For `CCCC[C@H]1C(=O)N(C)CC(=O)N[C@@H](CC(=O)O)C(=O)N[C@@H](C(C)C)C(=O)N(C)[C@@H](Cc2ccccc2)C(=O)N[C@@H](Cc2ccc(O)cc2)C(=O)N(C)CC(=O)N[C@@H](Cc2c[nH]c3ccccc23)C(=O)N[C@@H](Cc2ccc(O)cc2)C(=O)N[C@@H](CC(C)C)C(=O)N[C@H](C(=O)NCC(N)=O)CSCC(=O)N[C@@H](Cc2ccc(Cl)c(F)c2)C(=O)N(C)[C@@H](Cc2ccccc2)C(=O)N1C` [Example 3180] ({CH2CO}-[X15][NMeF][NMeNle][Sar]DV[NMeF]Y[Sar]WYLCG-NH2; thioether N-13) the same measures were 6.76 to 30.3 nM and 0.158 to 4.71 nM.
As to `CCCC[C@H]1C(=O)N2CCC[C@@H]2C(=O)N[C@@H](CCN)C(=O)N[C@H](C(=O)NCC(N)=O)CSCC(=O)N[C@@H](Cc2ccc(O)c(Br)c2)C(=O)N(C)[C@@H](C)C(=O)N[C@@H](CC(N)=O)C(=O)N2CCC[C@H]2C(=O)N[C@@H](Cc2cnc[nH]2)C(=O)N[C@@H](CC(C)C)C(=O)N2C[C@H](O)C[C@H]2C(=O)N[C@@H](Cc2c[nH]c3ccccc23)C(=O)N[C@@H](CCN)C(=O)N[C@@H](Cc2c[nH]c3ccccc23)C(=O)N1C` [Example 6044] ({CH2CO}-[Tyr(3-Br)][NMeA]NPHL[Hyp]W[Dab]W[NMeNle][dP][Dab]CG-NH2; thioether N-14), the IC50 in experiment [1] is 6.76 to 30.3 nM; in experiment [2] (setting [4]) it was over 74.3 nM.
For `CCCC[C@H]1C(=O)N(C)[C@@H](CCCC)C(=O)N[C@@H](CCCN)C(=O)N[C@H](C(=O)NCC(N)=O)CSCC(=O)N[C@@H](Cc2ccc(O)cc2)C(=O)N2CCC[C@H]2C(=O)N[C@@H](CC(=O)O)C(=O)N2CCC[C@H]2C(=O)N[C@@H](CN)C(=O)N[C@@H](CCC(N)=O)C(=O)N2C[C@H](O)C[C@H]2C(=O)N[C@@H](Cc2c[nH]c3ccccc23)C(=O)N[C@@H](CCN)C(=O)N[C@@H](Cc2csc3ccccc23)C(=O)N1C` [Example 1187] ({CH2CO}-YPDP[Dap]Q[Hyp]W[Dab][Bta][NMeNle][NMeNle][Orn]CG-NH2; thioether N-14), the IC50 lay within 6.76 to 30.3 nM in experiment [1] and 4.78 to 72.9 nM in experiment [2] (setting [3]).
With `CCCC[C@H]1C(=O)N(C)[C@@H](CCCC)C(=O)N[C@@H](CCCNC(=N)N)C(=O)N[C@H](C(=O)NCC(N)=O)CSCC(=O)N[C@@H](Cc2cccc(C(F)(F)F)c2)C(=O)N(C)[C@@H](C)C(=O)N[C@@H](CC(N)=O)C(=O)N2CCC[C@H]2C(=O)N[C@@H](CN)C(=O)N[C@@H](CC(C)C)C(=O)N2C[C@H](O)C[C@H]2C(=O)N[C@@H](Cc2c[nH]c3ccccc23)C(=O)N[C@@H](CO)C(=O)N[C@@H](Cc2c[nH]c3ccccc23)C(=O)N1C` [Example 7034] ({CH2CO}-[Phe(3-CF3)][NMeA]NP[Dap]L[Hyp]WSW[NMeNle][NMeNle]RCG-NH2; thioether N-14), the values for the IC50 in experiment [1] and in experiment [2] (setting [4]) were 0.385 to 6.74 nM and 4.78 to 72.9 nM, respectively.
For the compound `CCCC[C@H]1C(=O)N(C)[C@@H](CCCC)C(=O)N[C@@H](C)C(=O)N[C@H](C(=O)NCC(=O)O)CSCC(=O)N[C@@H](Cc2ccc(O)cc2)C(=O)N(C)[C@@H](C)C(=O)N[C@@H](CC(N)=O)C(=O)N2CCC[C@H]2C(=O)N[C@@H](Cc2cnc[nH]2)C(=O)N[C@@H](CC(C)C)C(=O)N[C@@H](CCCN)C(=O)N[C@@H](Cc2c[nH]c3ccccc23)C(=O)N[C@@H](CO)C(=O)N[C@@H](Cc2csc3ccccc23)C(=O)N1C` [Example 1153], the IC50 in experiment [1] is over 30.5 nM; in experiment [2] (setting [3]), 4.78 to 72.9 nM.
Turning to `CCCC[C@H]1C(=O)N(C)[C@@H](CCCC)C(=O)N[C@@H](CC(C)C)C(=O)N[C@H](C(=O)NCC(N)=O)CSCC(=O)N[C@@H](Cc2ccc(O)cc2)C(=O)N(C)[C@@H](C)C(=O)N[C@@H](CC(N)=O)C(=O)N2CCC[C@H]2C(=O)N[C@@H](Cc2c[nH]cn2)C(=O)N[C@@H](CCCCN)C(=O)N2C[C@H](O)C[C@H]2C(=O)N[C@@H](Cc2c[nH]c3ccccc23)C(=O)N[C@@H](CCCCN)C(=O)N[C@@H](Cc2c[nH]c3ccccc23)C(=O)N1C` [Example 5089] ({CH2CO}-Y[NMeA]NPHK[Hyp]WKW[NMeNle][NMeNle]LCG-NH2; thioether N-14), the IC50 in experiment [1] fell in the range of 0.385 to 6.74 nM; in experiment [2] (setting [4]), 0.158 to 4.71 nM.
For `CCCC[C@H]1C(=O)N(C)CC(=O)N[C@@H](CC(=O)O)C(=O)N[C@@H](C(C)C)C(=O)N(C)[C@@H](Cc2ccccc2)C(=O)N[C@@H](Cc2ccc(O)cc2)C(=O)N(C)CC(=O)N[C@@H](Cc2c[nH]c3ccccc23)C(=O)N[C@@H](Cc2ccc(O)cc2)C(=O)N[C@@H](CCC(=O)O)C(=O)N[C@H](C(=O)NCC(N)=O)CSCC(=O)N[C@@H](Cc2ccccc2)C(=O)N(C)[C@@H](Cc2ccccc2)C(=O)N1C` [Example 3509] (HELM PEPTIDE1{[O=C(C[*:3])[*:2]].F.[meF].[CCCC[C@@H](C(=O)[*:2])N(C)[*:1]].[Sar].D.V.[meF].Y.[Sar].W.Y.E.C.G.[am]}$PEPTIDE1,PEPTIDE1,1:R3-14:R3$$$V2.0) the same measures were 6.76 to 30.3 nM and over 74.3 nM.
Turning to `CCCC[C@H]1C(=O)N(C)[C@@H](CCCC)C(=O)N[C@@H](CCCNC(=N)N)C(=O)N[C@H](C(=O)NCC(N)=O)CSCC(=O)N[C@@H](Cc2cc(F)cc(F)c2)C(=O)N(C)[C@@H](C)C(=O)N[C@@H](CC(N)=O)C(=O)N2CCC[C@H]2C(=O)N[C@@H](CN)C(=O)N[C@@H](CC(C)C)C(=O)N2C[C@H](O)C[C@H]2C(=O)N[C@@H](Cc2c[nH]c3ccccc23)C(=O)N[C@@H](CO)C(=O)N[C@@H](Cc2c[nH]c3ccccc23)C(=O)N1C` [Example 7043] ({CH2CO}-[Phe(3,5-F2)][NMeA]NP[Dap]L[Hyp]WSW[NMeNle][NMeNle]RCG-NH2; thioether N-14), the values for the IC50 in experiment [1] and in experiment [2] (setting [4]) were 6.76 to 30.3 nM and 4.78 to 72.9 nM, respectively.
For `CCCC[C@H]1C(=O)N(C)[C@@H](CCCC)C(=O)N[C@@H](CCCNC(=N)N)C(=O)N[C@H](C(=O)NCC(N)=O)CSCC(=O)N[C@@H](Cc2ccccc2)C(=O)N(C)[C@@H](C)C(=O)N[C@@H](CC(N)=O)C(=O)N2CCC[C@H]2C(=O)N[C@@H](Cc2c[nH]cn2)C(=O)N[C@@H](CC(C)C)C(=O)N[C@@H](CCNC(=O)c2ccco2)C(=O)N[C@@H](Cc2c[nH]c3ccccc23)C(=O)N[C@@H](CO)C(=O)N[C@@H](Cc2c[nH]c3ccccc23)C(=O)N1C` [Example 1023] ({CH2CO}-F[NMeA]NPHL[Dab](2Furoyl)WSW[NMeNle][NMeNle]RCG-NH2; thioether N-14), the IC50 in experiment [1] was over 30.5 nM; in experiment [2] (setting [3]) it was over 74.3 nM.
For the compound `CCCC[C@H]1C(=O)N[C@@H](CCCNC(=N)N)C(=O)NC(C(=O)NCC(N)=O)CSCC(=O)N[C@@H](Cc2ccc(O)cc2)C(=O)N(C)[C@@H](C)C(=O)N[C@@H](CC(N)=O)C(=O)N2CCC[C@H]2C(=O)N[C@@H](Cc2cnc[nH]2)C(=O)N[C@@H](CC(C)C)C(=O)N2C[C@H](O)C[C@H]2C(=O)N[C@@H](Cc2c[nH]c3ccccc23)C(=O)N[C@@H](CO)C(=O)N[C@@H](Cc2c[nH]c3ccccc23)C(=O)N(C)[C@@H](COCC)C(=O)N1C` (stereo partly shown) [Example 9046], the figures for the concentration for half-maximal inhibition (IC50) in experiment [1] and in experiment [2] (setting [4]) were 0.385 to 6.74 nM and 0.158 to 4.71 nM, respectively.
